The supplement of paper PMC13380429

Key:
[1] = system: A549-ACE2 infected with SARS-CoV-2; test: cell count relative to DMSO; higher = less toxic; conditions: 24 h
Calu-3 [2] = test: cell viability relative to DMSO; higher = less toxic; conditions: 72 h
Caco-2 [3] = test: as above; conditions: 72 h
Vero E6 [4] = test: as above; conditions: 72 h
U2OS [5] = test: as above; conditions: 72 h
HepG2 [6] = test: as above; conditions: 72 h
Calu-3 [7] = test: drug sensitivity score (DSS) for viability; higher = more toxic; extreme values may be limits of the assay; conditions: 72 h
Caco-2 [8] = test: as above; conditions: 72 h
Vero E6 [9] = test: as above; conditions: 72 h
U2OS [10] = test: as above; conditions: 72 h
HepG2 [11] = test: as above; conditions: 72 h
A549-ACE2 [12] = test: phospholipidosis EC50; higher = less potent phospholipidosis inducer
A549-ACE2 [13] = test: drug-induced phospholipidosis relative to tamoxifen; higher = more phospholipidosis
[14] = system: A549-ACE2 infected with SARS-CoV-2; test: SARS-CoV-2 infection rate relative to DMSO; higher = more infection; conditions: 24 h
[15] = system: A549-ACE2 infected with SARS-CoV-2; test: morphology score (similarity to uninfected cells); higher = more like uninfected cells; conditions: 24 h
Calu-3 [16] = test: relative viability EC50 (midpoint between 100% and the lowest measured viability); higher = less toxic; conditions: 72 h
Caco-2 [17] = test: as above; conditions: 72 h
Vero E6 [18] = test: as above; conditions: 72 h
HepG2 [19] = test: as above; conditions: 72 h
U2OS [20] = test: as above; conditions: 72 h

COc1ccc(NC(=O)c2ccc(-c3ccc(-c4noc(C)n4)cc3C)cc2)cc1N1CCN(C)CC1
Conditions	SARS-CoV-2 infection rate [%]	cell count [%]	cell viability [%]	morphology score	phospholipidosis EC50 [nM]
A549-ACE2 [12], 24 h	–	–	–	–	719
A549-ACE2 [12], 48 h	–	–	–	–	984
A549-ACE2 [12], 72 h	–	–	–	–	1270
Caco-2 [3], 1 nM	–	–	105	–	–
Caco-2 [3], 10 nM	–	–	92.5	–	–
Caco-2 [3], 100 nM	–	–	98.8	–	–
Caco-2 [3], 1000 nM	–	–	94.4	–	–
Caco-2 [3], 10000 nM	–	–	42.8	–	–
Calu-3 [2], 1 nM	–	–	110	–	–
Calu-3 [2], 10 nM	–	–	109	–	–
Calu-3 [2], 100 nM	–	–	99.2	–	–
Calu-3 [2], 1000 nM	–	–	102	–	–
Calu-3 [2], 10000 nM	–	–	7.9	–	–
HepG2 [6], 1 nM	–	–	97.5	–	–
HepG2 [6], 10 nM	–	–	109	–	–
HepG2 [6], 100 nM	–	–	98.9	–	–
HepG2 [6], 1000 nM	–	–	103	–	–
HepG2 [6], 10000 nM	–	–	19.1	–	–
U2OS [5], 1 nM	–	–	103	–	–
U2OS [5], 10 nM	–	–	102	–	–
U2OS [5], 100 nM	–	–	106	–	–
U2OS [5], 1000 nM	–	–	99.3	–	–
U2OS [5], 10000 nM	–	–	54.2	–	–
Vero E6 [4], 1 nM	–	–	106	–	–
Vero E6 [4], 10 nM	–	–	101	–	–
Vero E6 [4], 100 nM	–	–	105	–	–
Vero E6 [4], 1000 nM	–	–	96.6	–	–
Vero E6 [4], 10000 nM	–	–	31.6	–	–
[1], 0.1 µM	–	97	–	–	–
[1], 0.3 µM	–	104	–	–	–
[1], 1 µM	–	109	–	–	–
[1], 3 µM	–	117	–	–	–
[14], 0.1 µM	106	–	–	–	–
[14], 0.3 µM	99	–	–	–	–
[14], 1 µM	85	–	–	–	–
[14], 3 µM	31	–	–	–	–
[15], 0.1 µM	–	–	–	-0.16	–
[15], 0.3 µM	–	–	–	0.15	–
[15], 1 µM	–	–	–	0.46	–
[15], 3 µM	–	–	–	0.78	–

Conditions	drug sensitivity score	relative viability EC50 [nM]
Caco-2 [8]	4	–
Caco-2 [17]	–	2360
Calu-3 [7]	5	–
Calu-3 [16]	–	3270
HepG2 [11]	4.2	–
HepG2 [19]	–	3380
U2OS [10]	2.5	–
Vero E6 [9]	4.2	–
Vero E6 [18]	–	2790

drug-induced phospholipidosis [%], A549-ACE2 [13]
Conditions	0.3 µM	0.833333 µM	3.33333 µM	6.66667 µM	10 µM	30 µM
24 h	2.12	35	61.8	56.7	35.2	28.3
48 h	4.59	17.3	79.1	76.8	56.3	–
72 h	4.03	12.8	79.8	80.8	–	–

C[C@@H](Oc1cc(-n2cnc3ccc(CN4CCN(C)CC4)cc32)sc1C(N)=O)c1ccccc1C(F)(F)F
Conditions	SARS-CoV-2 infection rate [%]	cell count [%]	cell viability [%]	morphology score	phospholipidosis EC50 [nM]
A549-ACE2 [12], 24 h	–	–	–	–	2900
Caco-2 [3], 1 nM	–	–	96.8	–	–
Caco-2 [3], 10 nM	–	–	95.2	–	–
Caco-2 [3], 100 nM	–	–	67.2	–	–
Caco-2 [3], 1000 nM	–	–	62.7	–	–
Caco-2 [3], 10000 nM	–	–	68.5	–	–
Calu-3 [2], 1 nM	–	–	105	–	–
Calu-3 [2], 10 nM	–	–	86.9	–	–
Calu-3 [2], 100 nM	–	–	84.5	–	–
Calu-3 [2], 1000 nM	–	–	84.8	–	–
Calu-3 [2], 10000 nM	–	–	36.1	–	–
HepG2 [6], 1 nM	–	–	98.2	–	–
HepG2 [6], 10 nM	–	–	101	–	–
HepG2 [6], 100 nM	–	–	23.9	–	–
HepG2 [6], 1000 nM	–	–	19.4	–	–
HepG2 [6], 10000 nM	–	–	8	–	–
U2OS [5], 1 nM	–	–	104	–	–
U2OS [5], 10 nM	–	–	101	–	–
U2OS [5], 100 nM	–	–	67.9	–	–
U2OS [5], 1000 nM	–	–	51.8	–	–
U2OS [5], 10000 nM	–	–	48.8	–	–
Vero E6 [4], 1 nM	–	–	101	–	–
Vero E6 [4], 10 nM	–	–	104	–	–
Vero E6 [4], 100 nM	–	–	77.2	–	–
Vero E6 [4], 1000 nM	–	–	64.6	–	–
Vero E6 [4], 10000 nM	–	–	36	–	–
[1], 0.1 µM	–	60	–	–	–
[1], 0.3 µM	–	55	–	–	–
[1], 1 µM	–	61	–	–	–
[1], 3 µM	–	62	–	–	–
[14], 0.1 µM	104	–	–	–	–
[14], 0.3 µM	101	–	–	–	–
[14], 1 µM	103	–	–	–	–
[14], 3 µM	36	–	–	–	–
[15], 0.1 µM	–	–	–	0.01	–
[15], 0.3 µM	–	–	–	0.06	–
[15], 1 µM	–	–	–	0.19	–
[15], 3 µM	–	–	–	0.65	–

Conditions	drug sensitivity score	relative viability EC50 [nM]
Caco-2 [8]	11.1	–
Calu-3 [7]	5.5	–
Calu-3 [16]	–	1730
HepG2 [11]	25.5	–
HepG2 [19]	–	54
U2OS [10]	13.3	–
U2OS [20]	–	80.4
Vero E6 [9]	9.3	–
Vero E6 [18]	–	444

A549-ACE2 [13], 24 h
Conditions	drug-induced phospholipidosis [%]
0.3 µM	14.3
0.833333 µM	26.9
3.33333 µM	156
6.66667 µM	198
10 µM	260
30 µM	246

O=C1NC(=O)C(c2cnc3ccccn23)=C1c1cn2c3c(cc(F)cc13)CN(C(=O)N1CCCCC1)CC2
Conditions	SARS-CoV-2 infection rate, [14] [%]	cell count, [1] [%]	cell viability, Caco-2 [3] [%]	cell viability, Calu-3 [2] [%]	cell viability, HepG2 [6] [%]	cell viability, U2OS [5] [%]	cell viability, Vero E6 [4] [%]	morphology score, [15]
1 nM	–	–	104	101	121	108	105	–
10 nM	–	–	109	111	113	112	105	–
100 nM	–	–	87.3	80	109	99.5	95.9	–
0.3 µM	114	79	–	–	–	–	–	-0.23
1000 nM	–	–	70.5	68.1	94	94.2	66.1	–
3 µM	108	75	–	–	–	–	–	-0.14
10 µM	92	72	–	–	–	–	–	-0.05
10000 nM	–	–	47.3	61	56.7	80.3	77.9	–
30 µM	49	50	–	–	–	–	–	0.41

Conditions	drug sensitivity score	relative viability EC50 [nM]
Caco-2 [8]	6.7	–
Caco-2 [17]	–	624
Calu-3 [7]	9.5	–
HepG2 [11]	3.2	–
U2OS [10]	1.3	–
U2OS [20]	–	> 10000
Vero E6 [9]	6.6	–

A549-ACE2 [13], 24 h
Conditions	drug-induced phospholipidosis [%]
0.3 µM	-5.51
0.833333 µM	-3
3.33333 µM	-2.04
6.66667 µM	-0.59
10 µM	12.5

CN1CCCCC1Cn1cc(C(=O)c2cc([N+](=O)[O-])ccc2I)c2ccccc21 (stereo unspecified) [AM-1241]
Conditions	SARS-CoV-2 infection rate, [14] [%]	cell count, [1] [%]	cell viability, Caco-2 [3] [%]	cell viability, Calu-3 [2] [%]	cell viability, HepG2 [6] [%]	cell viability, U2OS [5] [%]	cell viability, Vero E6 [4] [%]	morphology score, [15]
1 nM	–	–	92.7	103	89.1	94	95.4	–
10 nM	–	–	92.8	103	101	97.6	99.2	–
100 nM	–	–	100	99.3	107	91.7	96.5	–
0.3 µM	107	104	–	–	–	–	–	0.18
1000 nM	–	–	94.4	94.4	102	98.1	97.1	–
3 µM	85	109	–	–	–	–	–	0.36
10 µM	63	118	–	–	–	–	–	0.87
10000 nM	–	–	97.8	104	102	99	106	–
30 µM	33	115	–	–	–	–	–	0.66

Conditions	drug sensitivity score	relative viability EC50 [nM]
Caco-2 [8]	0	–
Caco-2 [17]	–	> 10000
Calu-3 [7]	0	–
Calu-3 [16]	–	> 10000
HepG2 [11]	0	–
HepG2 [19]	–	> 10000
U2OS [10]	0	–
U2OS [20]	–	> 10000
Vero E6 [9]	0	–
Vero E6 [18]	–	> 10000

drug-induced phospholipidosis [%], A549-ACE2 [13]
Conditions	0.3 µM	0.833333 µM	3.33333 µM	6.66667 µM	10 µM	30 µM
24 h	-1.12	0.49	3.57	9.5	15.9	81.8
48 h	-0.88	-2.35	0.06	1.85	8.12	104
72 h	-1.12	-4.89	-3.06	1.99	5.24	111
